From patent publication US20240300945A1, “CLY SERIES COMPOUND, PREPARATION METHOD THEREFOR AND USE THEREOF IN PREPARATION OF DRUGS” (NANJING WELLBEST PHARMACEUTICAL CO., LTD, priority 2021, published 2024)
Marks after values point to notes of the source that are not given here. One block for each compound: values may come before it.

Experiments:
[1] = test system: rabbit ear acne model; experiment: Rabbit ear acne model: macroscopic observation and histological grading; type: in vivo, New Zealand rabbits; details: for number of rabbits with acne histological grading 2+: Grade 2; for number of rabbits with acne histological grading 2+ / number of rabbits with acne histological grading — / number of rabbits with acne histological grading 1+ / number of rabbits with acne histological grading 3+: right ear, 10 per group; for number of rabbits with acne histological grading —: Level 0, without acne; for number of rabbits with acne histological grading 1+: Level 1; for number of rabbits with acne histological grading 3+: Level 3
Source text: (1) Preparation method of treatment cream: The excipient matrix components included methyl silicone oil (15%), stearic acid (6%), white vaseline (5%), liquid paraffin (5%), octadecanol (5%), glycerin (20%), alkyl aryl polyglycol ether (1%), fatty alcohol polyoxyethylene ether (1%), […] (1%), ethyl paraben (0.1%), distilled water (about 31-55%), and mixed with appropriate amount of CLY series compounds to form a mixed emulsion. The emulsion matrix used in this embodiment refers to the matrix component after the active ingredient was removed from the emulsion.
(2) Positive therapeutic drug: 0.1% adapalene gel (Trade name: Differin, produced by Laboratoires Galderma, France).
(§1) New Zealand rabbits were, according to weights, randomly divided into the model control group (applied cream matrix), positive treatment group (applied Differin on the skin), CLY-1 external treatment group (0.25% CLY-1 cream on the skin), CLY-2 external treatment group (0.25% CLY-2 cream on the skin), CLY-3 external treatment group (0.25% CLY-3 cream on the skin), CLY-4 external treatment group (0.25% CLY-4 cream on the skin) CLY-8 external treatment group (0.25% CLY-8 cream on the skin), CLY-9 external treatment group (0.25% CLY-9 cream on the skin), CLY-11 external treatment group (0.25% CLY-11 cream on the skin), CLY-19 external treatment group (0.25% CLY-19 cream on the skin), CLY-36 external treatment group (0.25% CLY-36 cream on the skin); CLY-1 intravenous injection group (1 mg/kg·d), CLY-2 intravenous injection group (1 mg/kg·d), CLY-3 intravenous injection group (1 mg/kg·d), CLY-4 intravenous injection group (1 mg/kg·d), CLY-8 intravenous injection group (1 mg/kg·d), CLY-9 intravenous injection group (1 mg/kg·d), CLY-11 intravenous injection group (1 mg/kg·d), CLY-19 intravenous injection group (1 mg/kg·d), and CLY-36 intravenous injection group (1 mg/kg·d), with 10 in each group. Took the inner side of the rabbit's right ear for depilation treatment as the observation area, and the inner side of the left ear of all rabbits as their own negative control, and applied 95% alcohol. The inner side of the right ear of the model group and the treatment group were both coated with 2% coal tar (Alfa Aesar China, which used 95% alcohol to prepare 2% coal tar solution), and evenly applied the sterile cotton swab to the opening of the ear duct on the inner side of the rabbit's ear within the range of about 2 cm×2 cm, once a day, 0.5 mL each time, and wiped the previous application site with warm water for 14 consecutive days to establish the acne micro-pigmentation model. Visually observed the changes of local skin, including ear thickness, hardness, roughness, and whether there was a black angle plug at the hair follicle mouth. 18 hours after the last application, the sample was sacrificed and skin was taken. The skin tissue was taken from the application site by using a 5 mm punch, fixed with 10% formaldehyde, embedded in paraffin, and stained with HE. The histopathological observation and analysis were carried out.
The histological grading criteria of the acne model: 3 grades according to histological grade. […] The tight keratin embolism in the hair follicles causes severe expansion of the hair follicles, obvious hyperplasia of the sebaceous duct epithelium, skin bulges and scars, and some sebaceous glands degenerate “3±”.
(§2) SPSS16 software was used for statistical analysis. The paired t-test was used for the left and right self-contrast, and the t-test was used for the comparison between the groups, P<0.05 was statistically significant.

[2] = test system: rabbit ear acne model; experiment: Rabbit ear acne model: epidermal thickness, hair follicle area, sebaceous gland diameter; type: in vivo, New Zealand rabbits; details: rabbit right ear
Source text: as §1
The histopathological changes were observed under the microscope, and the thickness of five different epidermises on a slice was measured with the Biomias99 image analysis system, and the average value was calculated; Detected the area of the two hair follicles and the diameter of the four sebaceous glands with the same position and the most complete structure in the four sections, calculated their average values, and then subtracted the data of the left and right external auditory canal of the rabbits in each group to obtain the difference in the thickness of the left and right ear epidermis, the difference in the area of the hair follicles and the difference in the diameter of the sebaceous glands.
as §2

[3] = Pharmacokinetic properties of rats (bioavailability); type: in vivo; details: rat, po; male SD rats; intravenous 1 mg/kg, intragastric 5 mg/kg; plasma LC/MS/MS
Experimental: Male SD rats were randomly assigned to each group, 12 rats in each compound group, and then randomly divided into two groups. Six rats were administered intravenously (1 mg/kg), and blood was collected and plasma was separated respectively at 0.0833, 0.25, 0.5, 1, 2, 4, 6, 8, and 24 hours after administration. The other six rats were administered intragastrically (5 mg/kg), and blood was collected and plasma was separated respectively at 0.25, 0.5, 1, 2, 4, 6, 8, and 24 hours after administration. The concentration of each compound in plasma was determined by LC/MS/MS method, and the relevant pharmacokinetic parameters were calculated by using the software Phoenix WinNonlin 6.2.1, the bioavailability in rats was calculated, and the pharmacokinetic properties of each compound were evaluated.

[4] = external use (0.25% CLY cream; positive: Differin)
[5] = intravenous injection 1 mg/kg·d

Structure (SMILES): O=C(c1ccc(-n2nnc3cccnc32)cc1)N(c1ncccc1Cl)[C@@H]1CCCN1 [CLY-9]
number of rabbits with acne histological grading 2+ [1, 4]: 1
number of rabbits with acne histological grading 2+ [1, 5]: 0
number of rabbits with acne histological grading — [1, 4]: 5
number of rabbits with acne histological grading — [1, 5]: 7
number of rabbits with acne histological grading 1+ [1, 4]: 4
number of rabbits with acne histological grading 1+ [1, 5]: 3
number of rabbits with acne histological grading 3+ [1, 4]: 0
number of rabbits with acne histological grading 3+ [1, 5]: 0
epidermal thickness [2, 4]: 0.2389 ± 0.0189 mm
hair follicle area [2, 4]: 0.2834 ± 0.0981* mm^2
sebaceous gland diameter [2, 4]: 0.0715 ± 0.0412 mm
epidermal thickness [2, 5]: 0.2126 ± 0.0167 mm
hair follicle area [2, 5]: 0.2327 ± 0.0865* mm^2
sebaceous gland diameter [2, 5]: 0.0614 ± 0.0396 mm

Structure (SMILES): COC1CCC[C@@H](N(C(=O)c2cccc(-c3nnn[nH]3)c2)c2ncccc2Cl)C1 (some centres unmarked) [CLY-17]
bioavailability [3]: 52.5%

Structure (SMILES): O=C(c1ccccc1-c1nnn[nH]1)N(c1ncccc1Cl)[C@@H]1CCCNC1 [CLY-21]
bioavailability [3]: 49.6%

Structure (SMILES): O=C(c1ccc(-c2ccc(Cl)cc2)cc1)N(c1ncccc1Cl)[C@@H]1CCCNC1 [CLY-26]
bioavailability [3]: 48.5%

Structure (SMILES): Nc1ccccc1-c1ccc(C(=O)N(c2ncccc2Cl)[C@@H]2CCNC2)cc1 [CLY-28]
bioavailability [3]: 42.6%

Structure (SMILES): Cc1ccccc1-c1ccc(C(=O)N(c2ncccc2Cl)[C@@H]2CCNC2)cc1 [CLY-30]
bioavailability [3]: 46.2%

Structure (SMILES): COc1ccc(-c2ccc3cc(C(=O)O)ccc3c2)cc1C12CC3CC(CC(C3)C1)C2 [Positive treatment group, adapalene, reference compound]
number of rabbits with acne histological grading 2+ [1, 4]: 3
number of rabbits with acne histological grading — [1, 4]: 5
number of rabbits with acne histological grading 1+ [1, 4]: 2
number of rabbits with acne histological grading 3+ [1, 4]: 0
macroscopic observation of right ear ([1]; after 14 days of coal tar, external treatment): slightly red, with a little desquamation and a small amount of acne
epidermal thickness [2, 4]: 0.2389 ± 0.0176 mm
hair follicle area [2, 4]: 0.2789 ± 0.0926* mm^2
sebaceous gland diameter [2, 4]: 0.0723 ± 0.0387 mm

Results, then the compound that gave them:

bioavailability [3]: 46.9%
Structure (SMILES): O=C(c1ccc(-c2cccc(-c3nnn[nH]3)c2)cc1)N(c1ncccc1Cl)[C@@H]1CCNC1 [CLY-18]

bioavailability [3]: 58.6%
Structure (SMILES): CN1CCC[C@@H](N(C(=O)c2ccc(-c3ccccc3)cc2)c2ncccc2Cl)C1 [CLY-32]

bioavailability [3]: 62.2%
Structure (SMILES): CCN1CCC[C@@H](N(C(=O)c2ccc(-c3ccc(Cl)cc3)cc2)c2ncccc2Cl)C1 [CLY-35]

bioavailability [3]: 56.5%
Structure (SMILES): O=C(c1ccccc1Cl)N(c1ncccc1Cl)[C@@H]1CCCNC1 [CLY-37]

bioavailability [3]: 50.6%
Structure (SMILES): CC(C)C(=O)OC(C)n1nnc(-c2c(-c3ccc(C(=O)N(c4ncccc4Cl)C4CCNC4)cc3)cnn2C)n1 [CLY-44, 1-(5-(4-(4-((3-chloropyridin-2-yl) (((R)-pyrrolidin-3-yl)carbamoyl)phenyl)-1-methyl-1H-pyrazol-5-yl)-2H-tetrazol-2-yl)ethyl isobutyrate]
